Legend:
Format in all cases: cell-based, human
[1] = test system: SC-β cells; assay: Insulin secretion of plated SC-β cells treated with anti-diabetic drugs in 2 and 20 mM glucose; details: drug-treated versus control
From the text: The inventors first tested whether SC-β cells could respond to existing anti-diabetic drugs from several different classes (FIG. 16B). LY2608204 is glucokinase activator in clinical trials while liraglutide, tolbutamide, and nateglinide are examples of GLP-1 agonists and secretagogues (sulfonylureas and meglitinides), respectively, that have been used clinically (Matschinsky, 2009; Modi, 2007; Vetere et al., 2014).

[2] = test system: SC-β cells; assay: GSIS of SC-β cells after adding factors to the CMRL media at the last differentiation step (Stage 6); details: factor added to CMRL media containing Alk5 inhibitor and T3 hormone, versus CMRL only, CMRL+Alk5 inhibitor+T3 or S3+Alk5 inhibitor+T3; for stimulation index (ratio of insulin secreted in high glucose to low glucose): 15 mM vs 2.5 mM glucose
From the text: To induce the in vitro maturation of at least some of the Pdx1-positive, NKX6-1-positive, insulin-positive endocrine cells into SC-β cells, the Pdx1-positive, NKX6-1-positive, insulin-positive endocrine cells are maintained in a suitable culture medium for a sufficient period of time. […] Adding additional factors to the CMRL media at the last step of differentiation (Stage 6) (FIG. 14A), however, was also found to generate a better glucose stimulated insulin secretion (GSIS) response by SC-β cells as measured by either stimulation index between high and low glucose challenges or by the amount of insulin released. Such additional factors may include, but are not limited to, Sant1, XXI, and SSP. The stimulation index, as calculated by the ratio of insulin secreted in high glucose (15 mM) to low glucose (2.5 mM), was greater for the SC-β cells maintained in a CMRL media containing Alk5 inhibitor, T3 hormone and either Sant1, XXI or SSP than those SC-β cells maintained in only CMRL media, CMRL media containing Alk5 inhibitor and T3 hormone, or S3 media containing Alk5 inhibitor and T3 hormone (FIG. 14B). Furthermore, the amount of insulin secreted was greater for the SC-β cells maintained in a CMRL media containing Alk5 inhibitor, T3 hormone and either Sant1, XXI or SSP than those SC-β cells maintained in only CMRL media, CMRL media containing Alk5 inhibitor and T3 hormone, or S3 media containing Alk5 inhibitor and T3 hormone (FIG. 14C).
Alternatively, Days 21-35: CMRLS+10 μM Alk5i II+1 μM T3+Sant1.
Alternatively, Days 21-35: CMRLS+10 μM Alk5i II+1 μM T3+XXI.
Alternatively, Days 21-35: CMRLS+10 μM Alk5i II+1 μM T3+SSP.

[3] = test system: hPSC derived cells; assay: Protocol modifications at Steps 3-6: cell survival and marker-positive populations; details: for cell survival: treatment during Steps 3-5 of differentiation
From the text: One challenge for the stem cell field has been generating a sufficient quantity of SC-β cells that can be useful for drug screening, disease modeling, or therapeutic use. For example, hES cells are technically difficult to culture, are vulnerable to apoptosis upon cellular detachment and dissociation, undergo massive cell death particularly after complete dissociation, and have low cloning efficiency. (Watanabe, K. et al., Nature Biotechnology 25, 681-686 (2007)). As a result, the quantity of viable SC-β cells yielded may be low. By modify the protocol between Steps 3 and 6 in the manner shown in FIG. 15A, more pure NKX6.1+ endocrine clusters can be generated (FIG. 15B) leading to more SC-β cells that can be therapeutically useful.
In Steps 3-5, for instance, cell survival can be improved by adding a rho-associated protein kinase inhibitor, or a Rock inhibitor. It is believed that the addition of a Rock inhibitor enhances survival of ES cells by preventing dissociation-induced apoptosis thus increasing their cloning efficiency. (Watanabe et al.) Examples of Rock inhibitors include, but are not limited to, Y-27632, Fasudil/HA1077, and H-1152.
In addition to treating the cells with a Rocki inhibitor, the cells in Steps 3-4 can be treated with ActivinA alone or in combination with Nicotinamide. […] Since SOX2 and NKX6-1 are mutually exclusive (FIG. 15E), down-regulation of SOX2 results in the up-regulation of NKX6-1, a marker for a mature pancreatic β cell.
In Steps 5-6, cell survival can further be enhanced by treating cells with staurosporine. Staurosporine is known to be an activator of neuronal, glial, and stem cell-like neurosphere differentiation and is also thought to induce apoptosis. (Schumacher, et al., Mol. Cell. Neurosci. 2003; 23(4): 669-680).
Finally, cell survival can further be enhanced by treating cells with a culture medium containing Alk5i, T3 in combination with XXI, a γ-secretase inhibitor that improves β cell maturation.
Cells were dispersed into single-cell suspension by incubation in TrypLE Express at 37° C. for 10-30 min in a 15 ml falcon tube. Starting at stage 5, clusters take longer to dissociate into single cells. Clusters should be incubated with TrypLE Express until they dissociate to single cells upon mixing by pipetting gently up and down with a P1000. The TrypLE Express was quenched with 3-4 times media and cells were spun down for 5 min at 1000 rpm. Cells were washed twice in PBS and transferred to a 1.7 ml Safe seal microcentrifuge tube (Bioscience Inc.; 11510). Make sure having 1-10 mio cells/tube and use 0.5-1 ml volumes in the following. Cells were resuspended in 4% paraformaldehyde (PFA) (Electron Microscopy Science Nm; 15710) and incubated on ice for 30 min. Cells were then washed 3 times in PBS followed by incubation in blocking buffer (PBS+0.1% TritonX100 (VWR; EM-9400)+5% donkey serum (Jackson Immunoresearch; 017-000-121)) on ice for 1 hour. After fixation cells are more resistant to centrifugation, so after fixation all centrifugations were done at 3000 g for 3 min. Cells were then resuspended in blocking buffer with primary antibodies and incubated at 4° C. overnight. […]

For `O=C(Nc1ncc(SCCN2CCCC2)s1)[C@]1(c2ccc(S(=O)(=O)C3CC3)cc2)C[C@H]1C1CCCCC1` [LY2608204], the “insulin secretion of SC-β cells following a glucose challenge” value (“insulin secretion” for short) [1] was “trend toward responding to treatment with these drugs by increasing insulin secretion”.

In the case of `Cc1nn(-c2ccccc2)c(C)c1/C=N/N1CCN(Cc2ccccc2)CC1` [Sant1], the “stimulation index (ratio of insulin secreted in high glucose to low glucose)” value [2] is reported as “greater” and the “amount of insulin secreted” value [2] is reported as “greater”.

With `CCCCNC(=O)NS(=O)(=O)c1ccc(C)cc1` [tolbutamide] the “insulin secretion” value [1] was “trend toward responding to treatment with these drugs by increasing insulin secretion”.

`NC(=O)c1cccnc1` [Nicotinamide] was tested, and the cell survival [3] was “improve cell survival”.

With `C[C@H](NC(=O)Cc1cc(F)cc(F)c1)C(=O)N[C@H]1N=C(c2ccccc2)c2ccccc2N(C)C1=O` [XXI] the “NeuroD1+ population” value ([3]; added to medium with Alk5i and T3 at Steps 5 and 6, versus Alk5i and T3 only) was “increase the NeuroD1+ population”, the “stimulation index (ratio of insulin secreted in high glucose to low glucose)” value [2] was “greater” and the “amount of insulin secreted” value [2] was “greater”.

For `CN[C@@H]1C[C@H]2O[C@@](C)([C@@H]1OC)n1c3ccccc3c3c4c(c5c6ccccc6n2c5c31)C(=O)NC4` [staurosporine], the “percentage of Chromogranin A (pancreatic endocrine cell marker)” value ([3]; treatment in Steps 5-6) was “increasing the percentage of Chromogranin A” and the “percentage of NKX6-1/C-peptide+ cells” value ([3]; treatment in Steps 5-6) was “increasing the percentage of NKX6-1.C-peptide+ cells”.

With `CC(C)[C@H]1CC[C@H](C(=O)N[C@H](Cc2ccccc2)C(=O)O)CC1` [nateglinide] the “insulin secretion” value [1] was “trend toward responding to treatment with these drugs by increasing insulin secretion”.

B1: Activin A: growth factor from the TGF-β superfamily (protein, UniProt P08476 311-426, looked up)
Inhibin beta A chain: GLECDGKVNICCKKQFFVSFKDIGWNDWIIAPSGYHANYCEGECPSHIAGTSGSSLSFHSTVINHYRMRGHSPFANLKSCCVPTKLRPMSMLYYDDGQNIIKKDIQNMIVEECGCS
modifications: Inhibin beta A chain
notes: growth factor from the TGF-β superfamily
In the case of B1, the cell survival [3] is reported as “improve cell survival”.

Reference: patent US12049646B2, “SC-beta cells and compositions and methods for generating the same” (President and Fellows of Harvard College, priority 2013, dated 2024)
